Results: PMC10897196, “Structure–activity characteristics of phenylalanine analogs selectively transported by L-type amino acid transporter 1 (LAT1)” (Scientific Reports, 2024)

Key:
human LAT1 [1] = molecular target: T1, human LAT1 (Homo sapiens, UniProt Q01650); experiment: Inhibition of L-[14C]leucine uptake in HEK293-hLAT1 cells; type: cell-based; conditions: for Inhibition of LAT1-mediated L-[14C]leucine uptake (in words, rank order): 1 μM L-[14C]leucine, 1 min, compounds at 10, 30, 100 μM; for Ki: L-[14C]leucine uptake, HEK293-hLAT1, mean ± S.E.M., n = 3–4, read-out: Ki (μM) LAT1; for Ki ratio (LAT2/LAT1): LAT1 selectivity, LAT2 Ki over LAT1 Ki
T1 construct: expressed in transfected cells
T1 sequence (Q01650 whole entry, one chain of several): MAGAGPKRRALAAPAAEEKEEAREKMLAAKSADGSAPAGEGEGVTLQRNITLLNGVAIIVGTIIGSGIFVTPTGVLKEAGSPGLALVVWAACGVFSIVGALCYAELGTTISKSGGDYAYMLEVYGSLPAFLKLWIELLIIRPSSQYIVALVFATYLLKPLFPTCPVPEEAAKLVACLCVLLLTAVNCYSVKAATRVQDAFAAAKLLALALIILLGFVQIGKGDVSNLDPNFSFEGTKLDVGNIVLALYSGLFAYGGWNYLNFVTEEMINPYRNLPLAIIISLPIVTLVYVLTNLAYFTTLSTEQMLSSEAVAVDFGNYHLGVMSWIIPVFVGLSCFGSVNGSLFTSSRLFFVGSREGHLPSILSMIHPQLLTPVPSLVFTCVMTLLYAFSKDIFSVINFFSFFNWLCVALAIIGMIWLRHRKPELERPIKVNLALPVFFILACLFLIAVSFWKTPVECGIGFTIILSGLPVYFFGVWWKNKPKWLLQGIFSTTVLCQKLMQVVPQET
Description: (§1) In this study, we used the HEK293 cells stably expressing human LAT1 or human LAT2, which form a heterodimeric complex with endogenous 4F2hc (CD98hc), required for plasma membrane localization. We first explored the impact of halogen group positioning in the benzene ring of Phe (Fig. 1) on its interaction with LAT1 and LAT2. […] We conducted inhibition experiments to measure the uptake of L-[^14C]leucine by LAT1 and L-[^14C]alanine by LAT2 in the presence or absence of Phe derivatives with an iodo group at position 2, 3, or 4 in the benzene ring.
(§2) The inhibition experiments were performed as described previously. HEK293-hLAT1 (1.5 × 10^5 cells/well) or HEK293-hLAT2 (2 × 10^5 cells/well) cells were plated onto poly-D-lysine-coated 24-well plates (Corning, New York, USA). Following a 2-day culture period, the uptake of 1 μM L-[^14C]leucine or L-[^14C]alanine was measured for 1 min in the absence or presence of non-radiolabeled test compounds at concentrations of 10, 30, and 100 μM. Radioactivity was quantified using a β-scintillation counter (LSC-3100; Aloka, Tokyo, Japan), and protein concentrations were determined with a Micro BCA Protein Assay Kit (Thermo Fisher Scientific, Rockford, IL). To calculate Ki values, the concentration-dependent uptake of L-[^14C]leucine or L-[^14C]alanine was analyzed in the presence and absence of test compounds[49]. The data were plotted against substrate concentration and fitted to Michaelis–Menten kinetics. Ki values were derived using nonlinear regression analysis with the enzyme kinetics inhibition module in GraphPad Prism software (Version 10.0.2; GraphPad Software Inc., San Diego, CA, USA).

human LAT2 [2] = molecular target: T2, human LAT2 (Homo sapiens, UniProt Q9UHI5); experiment: Inhibition of L-[14C]alanine uptake in HEK293-hLAT2 cells; type: cell-based; conditions: for Inhibition of LAT2-mediated L-[14C]alanine uptake (in words, rank order): 1 μM L-[14C]alanine, 1 min, compounds at 10, 30, 100 μM; for Ki: L-[14C]alanine uptake, HEK293-hLAT2, mean ± S.E.M., n = 3–4, read-out: Ki (μM) LAT2
T2 construct: expressed in transfected cells
T2 sequence (Q9UHI5 1-535): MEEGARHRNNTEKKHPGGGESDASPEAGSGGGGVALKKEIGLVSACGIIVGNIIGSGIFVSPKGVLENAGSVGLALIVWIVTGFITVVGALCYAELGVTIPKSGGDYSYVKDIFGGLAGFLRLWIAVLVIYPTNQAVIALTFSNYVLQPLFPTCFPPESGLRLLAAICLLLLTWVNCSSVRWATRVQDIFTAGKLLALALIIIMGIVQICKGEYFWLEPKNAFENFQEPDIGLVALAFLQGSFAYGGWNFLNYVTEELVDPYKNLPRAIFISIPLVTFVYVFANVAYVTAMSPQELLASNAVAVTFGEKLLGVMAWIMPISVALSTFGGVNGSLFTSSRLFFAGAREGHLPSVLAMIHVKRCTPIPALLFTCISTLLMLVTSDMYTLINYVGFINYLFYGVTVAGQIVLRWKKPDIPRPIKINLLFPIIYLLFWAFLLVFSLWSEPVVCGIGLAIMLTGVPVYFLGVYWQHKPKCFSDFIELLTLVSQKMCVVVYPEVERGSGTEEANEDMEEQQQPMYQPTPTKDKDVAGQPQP
T2 sequence (P08195 1-529 partner): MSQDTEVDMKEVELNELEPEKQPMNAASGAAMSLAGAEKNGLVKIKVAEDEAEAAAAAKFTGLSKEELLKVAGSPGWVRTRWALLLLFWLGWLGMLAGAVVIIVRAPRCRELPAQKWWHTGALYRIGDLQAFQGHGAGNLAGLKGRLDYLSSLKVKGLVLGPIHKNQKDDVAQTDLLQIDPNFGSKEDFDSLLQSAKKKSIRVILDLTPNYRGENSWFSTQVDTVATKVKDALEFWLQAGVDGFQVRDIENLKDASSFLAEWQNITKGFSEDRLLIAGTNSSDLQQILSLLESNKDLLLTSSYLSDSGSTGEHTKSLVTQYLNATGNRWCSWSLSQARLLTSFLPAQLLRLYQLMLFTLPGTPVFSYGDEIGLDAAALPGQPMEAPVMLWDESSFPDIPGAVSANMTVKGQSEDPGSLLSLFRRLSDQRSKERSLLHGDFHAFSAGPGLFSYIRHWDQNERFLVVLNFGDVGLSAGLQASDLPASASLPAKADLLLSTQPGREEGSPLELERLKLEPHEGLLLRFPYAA
Description: as §1, §2

human LAT1 [3] = molecular target: T1, human LAT1; experiment: Efflux of pre-loaded L-[14C]leucine from HEK293-hLAT1 cells induced by extracellular compounds; type: cell-based
Procedure: (§3) We evaluated the efflux of pre-loaded L-[^14C]leucine from LAT1 and pre-loaded L-[^14C]alanine from LAT2 induced by extracellularly applied compounds.
(§4) Efflux experiments were performed as described previously. Cells cultured 48 h were pre-loaded with 5 μM L-[^14C]leucine or L-[^14C]alanine for 10 min at 37 °C. The cells were then washed, and the efflux was induced by incubating cells for 1 min in either the absence or presence of non-radiolabeled test compounds at indicated concentrations. The efflux time of 1 min fell within the linear range of time-dependent substrate efflux mediated by LAT1 and LAT2 (Supplementary Fig. S2). Following incubation, the medium was collected and radioactivity was measured in both the medium and the cells. Efflux was quantified as the percentage of radioactivity released into the medium, calculated using the formula: radioactivity of medium/(radioactivity of medium + radioactivity of cells) × 100%.
(§5) The kinetic parameters for the efflux of L-[^14C]leucine or L-[^14C]alanine induced by various concentrations of extracellularly-applied test compounds were analyzed. The baseline efflux values—those obtained in the absence of test compounds—were subtracted from the values measured in the presence of the compounds. The resultant data were fitted to Michaelis–Menten kinetics to determine the Km and Vmax by nonlinear regression analysis using “enzyme kinetics-velocity as a function of substrate” module within GraphPad Prism software.

human LAT2 [4] = molecular target: T2, human LAT2; experiment: Efflux of pre-loaded L-[14C]alanine from HEK293-hLAT2 cells induced by extracellular compounds; type: cell-based
Procedure: as §3, §4, §5

[5] = set-up: method as in PMID 11901210; conditions: correlated with LAT1 Ki; cited from earlier work
[6] = Plasma concentration-time profile in normal mice after intravenous administration; type: in vivo; conditions: C57BL/6J mice, i.v., 15, 30, 60, 120 min; 2-F-Tyr 15.6 mg/kg, bicyclic-Phe 15 mg/kg
Procedure: The blood samples were collected at 15, 30, 60, and 120 min post-administration into lithium heparin-coated tubes (BD, New Jersey, USA) and then centrifuged at 1,500 ×g for 10 min at 23 °C. The resulting plasma was stored at −80 °C pending analysis by HPLC.
(§6) HPLC analyses were conducted as previously described. In brief, tumors and small intestines were homogenized in ice-cold PBS (3 times the tissue weight, v/w). The homogenates were then centrifuged at 15,000 ×g for 40 min at 4 °C. A 10 μL aliquot of the tissue supernatant or plasma was mixed with 190 μL of acetonitrile (MeCN) to precipitate proteins. This mixture was subsequently centrifuged at 15,000 ×g for 30 min at 4 °C. The resulting supernatant (100 μL) was dried, and the residue was reconstituted in 20 μL of 400 mM sodium borate (pH 8.0). Finally, 5 μL of 40 mM 4-fluoro-7-nitro-2,1,3-benzoxadiazole (NBD-F) in MeCN was added for fluorescence derivatization. HPLC analysis was carried out using a NANOSPACE SI-2 HPLC system (Shiseido, Tokyo, Japan) equipped with a fluorescence detector. […] The mobile phase consisted of MeCN, water, and trifluoroacetic acid (TFA) in a 27.5:72.5:0.05 (v/v/v) ratio, delivered at a flow rate of 200 μL/min.

[7] = Tissue accumulation (plasma, tumor, small intestine) in B16-F10 tumor-bearing mice, HPLC; type: in vivo
Procedure: Female C57BL/6J mice were subcutaneously injected with 2 × 10^6 B16-F10 cells. The cells were prepared in a mixture containing a 1:1 volume ratio of phosphate-buffered saline (PBS) and Matrigel (Corning, New York, USA), with the total injection volume being 200 μL, administered into the dorsal flank. Tumor growth was measured bi-daily using calipers until tumors reached a size of approximately 300 ~ 500 mm^3, at which point they were deemed palpable. […] Blood samples were collected at 30 and 60 min post-administration. Then both the tumors and small intestines were excised and weighed for subsequent analysis by HPLC.
as §6

[8] = LAT1, L-[14C]leucine efflux, 1 min, mean ± S.E.M., n = 3

With `N[C@@H](Cc1ccccc1F)C(=O)O` [2-F-Phe] as the compound, how does the “Inhibition of LAT1-mediated L-[14C]leucine uptake (in words, rank order)” value (human LAT1 [1]) read?
Its value is 2-F-Phe = Phe.

What does the source list for `N[C@H](C(=O)O)c1ccccc1` [Phg, L-phenylglycine]?
Inhibition of LAT2-mediated L-[14C]alanine uptake (in words, rank order) (human LAT2 [2]): minimal inhibition; Ki (human LAT2 [2]): 242 ± 20.8 µM; Inhibition of LAT1-mediated L-[14C]leucine uptake (in words, rank order) (human LAT1 [1]): inhibit; Ki (human LAT1 [1]): 96.8 ± 13.2 µM; Ki ratio (LAT2/LAT1) (human LAT1 [1]): 2.50

What does the source list for `N[C@@H](Cc1ccccc1)C(=O)O` [Phe, phenylalanine]?
Ki (human LAT2 [2]): 110 ± 20 µM; Km (human LAT1 [3]; [8]): 8.92 ± 1.08 µM; Vmax of efflux (% radioactivity/min) (human LAT1 [3]; [8]): 13.32 ± 0.31 % radioactivity/min; Ratio to Vmax of Phe (human LAT1 [3]; LAT1 efflux): (1.00); LAT1-mediated L-[14C]leucine efflux induced (in words) (human LAT1 [3]; compounds at 10, 30, 100 μM, 1 min): induced a notable efflux; Inhibition of LAT1-mediated L-[14C]leucine uptake (in words, rank order) (human LAT1 [1]): inhibit; Ki (human LAT1 [1]): 43.5 ± 6.28 µM; Ki ratio (LAT2/LAT1) (human LAT1 [1]): 2.53; Vmax of efflux (% radioactivity/min) (human LAT2 [4]; LAT2, L-[14C]alanine efflux, 1 min, mean ± S.E.M., n = 3): 39.60 ± 0.74 % radioactivity/min; Ratio to Vmax of Phe (human LAT2 [4]; LAT2 efflux): (1.00)

For `C[C@](N)(Cc1ccc(O)cc1)C(=O)O` [α-methyl-Tyr], which Carbonyl oxygen charge [5] is on record?
The Carbonyl oxygen charge was −0.5579.

Which “Inhibition of LAT1-mediated L-[14C]leucine uptake (in words, rank order)” value (human LAT1 [1]) does the source give for `N[C@@H](Cc1ccccc1Br)C(=O)O` [2-Br-Phe] here?
Its value is 2-Cl-Phe < 2-Br-Phe.

For `N[C@@H](Cc1ccc(I)cc1)C(=O)O` [4-I-Phe], which “Inhibition of LAT2-mediated L-[14C]alanine uptake (in words, rank order)” value (human LAT2 [2]) is on record?
The value was “Phe < 4-I-Phe”.

What about the “Inhibition of LAT1-mediated L-[14C]leucine uptake (in words, rank order)” value (human LAT1 [1]) of the same compound?
The value was “comparable to that of Phe”.

With `N[C@@H](Cc1cccc(Cl)c1)C(=O)O` [3-Cl-Phe] as the compound, how does the “Inhibition of LAT2-mediated L-[14C]alanine uptake (in words, rank order)” value (human LAT2 [2]) read?
The value was 3-F-Phe < 3-Cl-Phe.

And the “Inhibition of LAT1-mediated L-[14C]leucine uptake (in words, rank order)” value (human LAT1 [1])?
The value was 3-F-Phe < 3-Cl-Phe.

What does the source list for `N[C@@H](Cc1ccc(O)cc1F)C(=O)O` [2-F-Tyr, 2-Fluoro-L-tyrosine, reference compound]?
Plasma concentration (in words) [6]: time-dependent decreases in plasma concentration; Small intestine-to-plasma ratio (I/P) (in words) ([7]; 30 and 60 min after i.v., equimolar doses): considerably higher for 2-F-Tyr than for bicyclic-Phe; Concentration in tumor compared with plasma ([7]; i.v., normalized to tissue weight / plasma volume, 2-F-Tyr at 60 min): higher in the tumor than in plasma
